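Where inhibition never reached the appropriate level, the endpoint shown equals the highest concentration tested. Otherwise, values were interpolated linearly from a five-concentration, 48-hour dose response in 96-well plates. GI50 marks 50% less growth.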 Active and inactive are the calls of the source. Rule as the data show it: active = GI50 up to about 1.1 µM and inactive = higher.
Assays:
Test in all cases: NCI-60 cell line screen, 48 h
K562 = system: K562
MOLT-4 = system: MOLT-4
HCT-116 = system: HCT-116
HOP-92 = system: HOP-92
LOX IMVI = system: LOX IMVI
UO-31 = system: UO-31
SK-MEL-2 = system: SK-MEL-2
DMS-273 = system: DMS-273
M19-MEL = system: M19-MEL
HOP-18 = system: HOP-18
SNB-75 = system: SNB-75
ACHN = system: ACHN
Hs-578T = system: Hs-578T
MDA-MB-231 = system: MDA-MB-231
PC-3 = system: PC-3
BT-549 = system: BT-549
T47D = system: T47D
DU-145 = system: DU-145
A498 = system: A498
786-0 = system: 786-0

SMILES: COc1ccc(C(=O)NNC(=O)c2nsc3ccccc23)cc1
- GI50 (K562): 39.4 µM (inactive)
- GI50 (MOLT-4): 34 µM (inactive)
- GI50 (HCT-116): 83.6 µM (inactive)
- GI50 (HOP-92): 40.1 µM (inactive)
- GI50 (LOX IMVI): 58.2 µM (inactive)
- GI50 (UO-31): > 100 µM (inactive)
- GI50 (SK-MEL-2): > 100 µM (inactive)
- GI50 (DMS-273): > 100 µM (inactive)
- GI50 (M19-MEL): > 100 µM (inactive)

SMILES: CCOC(=O)C1CCn2c(nc3c2c(=O)n(C)c(=O)n3C)S1 (stereo unspecified)
- GI50 (HOP-18): > 100 µM (inactive)
- GI50 (SNB-75): > 100 µM (inactive)
- GI50 (K562): > 100 µM (inactive)
- GI50 (MOLT-4): > 100 µM (inactive)
- GI50 (HCT-116): > 100 µM (inactive)
- GI50 (LOX IMVI): > 100 µM (inactive)
- GI50 (SK-MEL-2): > 100 µM (inactive)
- GI50 (DMS-273): > 100 µM (inactive)
- GI50 (ACHN): > 100 µM (inactive)

SMILES: CCC(=O)NC(Nc1cccc(F)c1)(C(F)(F)F)C(F)(F)F
- GI50 (SNB-75): > 100 µM (inactive)
- GI50 (K562): > 100 µM (inactive)
- GI50 (MOLT-4): 57 µM (inactive)
- GI50 (HCT-116): > 100 µM (inactive)
- GI50 (Hs-578T): 98.6 µM (inactive)
- GI50 (HOP-92): > 100 µM (inactive)
- GI50 (LOX IMVI): > 100 µM (inactive)
- GI50 (MDA-MB-231): > 100 µM (inactive)
- GI50 (PC-3): > 100 µM (inactive)
- GI50 (BT-549): > 100 µM (inactive)
- GI50 (UO-31): 70.1 µM (inactive)
- GI50 (SK-MEL-2): > 100 µM (inactive)
- GI50 (T47D): > 100 µM (inactive)
- GI50 (ACHN): > 100 µM (inactive)
- GI50 (DU-145): > 100 µM (inactive)

SMILES: C[C@H]1S[C@@H](c2ccc(Cl)cc2Cl)N(NC(=O)c2ccncc2)C1=O
- GI50 (SNB-75): 80.5 µM (inactive)
- GI50 (K562): 28.1 µM (inactive)
- GI50 (MOLT-4): 18.4 µM (inactive)
- GI50 (HCT-116): 34.5 µM (inactive)
- GI50 (Hs-578T): 94.2 µM (inactive)
- GI50 (A498): > 100 µM (inactive)
- GI50 (HOP-92): 60.5 µM (inactive)
- GI50 (MDA-MB-231): 49.2 µM (inactive)
- GI50 (PC-3): 33 µM (inactive)
- GI50 (BT-549): 39.4 µM (inactive)
- GI50 (UO-31): 37 µM (inactive)
- GI50 (SK-MEL-2): 27.3 µM (inactive)
- GI50 (T47D): 33 µM (inactive)
- GI50 (DU-145): 71.3 µM (inactive)

SMILES: Nc1ccccc1C(=O)N/N=C1\C(=O)Nc2ccccc21
- GI50 (786-0): 37.6 µM (inactive)
- GI50 (SNB-75): 23.9 µM (inactive)
- GI50 (K562): > 100 µM (inactive)
- GI50 (MOLT-4): > 100 µM (inactive)
- GI50 (HCT-116): > 100 µM (inactive)
- GI50 (Hs-578T): 37.7 µM (inactive)
- GI50 (A498): 33.2 µM (inactive)
- GI50 (MDA-MB-231): 19.6 µM (inactive)
- GI50 (PC-3): > 100 µM (inactive)
- GI50 (BT-549): 30.8 µM (inactive)
- GI50 (UO-31): > 100 µM (inactive)
- GI50 (SK-MEL-2): > 100 µM (inactive)
- GI50 (T47D): > 100 µM (inactive)
- GI50 (ACHN): 56.4 µM (inactive)
- GI50 (DU-145): > 100 µM (inactive)

SMILES: Cc1n[nH]c(CC#N)n1
- GI50 (786-0): > 100 µM (inactive)
- GI50 (SNB-75): > 100 µM (inactive)
- GI50 (K562): > 100 µM (inactive)
- GI50 (MOLT-4): > 100 µM (inactive)
- GI50 (HCT-116): > 100 µM (inactive)
- GI50 (HOP-92): > 100 µM (inactive)
- GI50 (LOX IMVI): > 100 µM (inactive)
- GI50 (MDA-MB-231): > 100 µM (inactive)
- GI50 (PC-3): > 100 µM (inactive)
- GI50 (BT-549): > 100 µM (inactive)
- GI50 (UO-31): > 100 µM (inactive)
- GI50 (SK-MEL-2): > 100 µM (inactive)
- GI50 (ACHN): > 100 µM (inactive)
- GI50 (DU-145): > 100 µM (inactive)

SMILES: COC(=O)C(F)C(Br)C(=O)OC (stereo unspecified)
- GI50 (786-0): 2.52 µM (inactive)
- GI50 (SNB-75): 12.3 µM (inactive)
- GI50 (K562): 1.63 µM (inactive)
- GI50 (MOLT-4): 0.9 µM (active)
- GI50 (HCT-116): 2.74 µM (inactive)
- GI50 (Hs-578T): 16.6 µM (inactive)
- GI50 (A498): 20.9 µM (inactive)
- GI50 (HOP-92): 2.56 µM (inactive)
- GI50 (LOX IMVI): 6.41 µM (inactive)
- GI50 (MDA-MB-231): 14.6 µM (inactive)
- GI50 (PC-3): 3.63 µM (inactive)
- GI50 (BT-549): 16.2 µM (inactive)
- GI50 (UO-31): 1.89 µM (inactive)
- GI50 (SK-MEL-2): 16.1 µM (inactive)
- GI50 (T47D): 2.15 µM (inactive)
- GI50 (ACHN): 1.86 µM (inactive)
- GI50 (DU-145): 9.55 µM (inactive)

SMILES: COc1cc2cc(C(=O)N3CC(CCl)c4ccc(NO)cc43)[nH]c2c(OC)c1OC (stereo unspecified)
- GI50 (786-0): 0.287 µM (active)
- GI50 (SNB-75): 0.177 µM (active)
- GI50 (K562): 0.139 µM (active)
- GI50 (MOLT-4): 0.184 µM (active)
- GI50 (HCT-116): 0.253 µM (active)
- GI50 (Hs-578T): 0.296 µM (active)
- GI50 (A498): 0.0675 µM (active)
- GI50 (HOP-92): 0.352 µM (active)
- GI50 (LOX IMVI): 0.164 µM (active)
- GI50 (MDA-MB-231): 0.254 µM (active)
- GI50 (PC-3): 0.0914 µM (active)
- GI50 (BT-549): 0.253 µM (active)
- GI50 (UO-31): 0.0325 µM (active)
- GI50 (SK-MEL-2): 0.126 µM (active)
- GI50 (T47D): 0.436 µM (active)
- GI50 (ACHN): 0.091 µM (active)
- GI50 (DU-145): 0.0953 µM (active)

SMILES: CC1CC2=C(S(=O)(=O)c3ccccc3)CC(S(=O)(=O)c3ccccc3)(S(=O)(=O)c3ccccc3)CC21 (stereo unspecified)
- GI50 (HOP-18): > 100 µM (inactive)
- GI50 (SNB-75): 25.1 µM (inactive)
- GI50 (K562): 38.7 µM (inactive)
- GI50 (MOLT-4): > 100 µM (inactive)
- GI50 (HCT-116): 21.9 µM (inactive)
- GI50 (A498): > 100 µM (inactive)
- GI50 (LOX IMVI): > 100 µM (inactive)
- GI50 (UO-31): > 100 µM (inactive)
- GI50 (SK-MEL-2): > 100 µM (inactive)
- GI50 (DMS-273): > 100 µM (inactive)
- GI50 (ACHN): > 100 µM (inactive)
